Experimental data published in PMC11264232, “Are the metal identity and stoichiometry of metal complexes important for colchicine site binding and inhibition of tubulin polymerization?” (Dalton Transactions (Cambridge, England : 2003), 2024).
Values joined by “and” are separate entries in the source; they are usually repeats but may differ in a detail not shown here. Equal entries are not always repeated. Marks after values point to notes of the source that are not given here.

Legend:
[1] = Cyclic voltammetry in DMSO/nBu4NPF6; assay type: physicochemical; settings: scan rate 100 mV s^−1
Method: Cyclic voltammetric experiments with 0.5 mM solutions of 1–3 in 0.1 M nBu4NPF6 (puriss quality from Fluka (Schwerte, Germany), dried under reduced pressure at 70 °C for 24 h before use) supporting electrolyte in DMSO (SeccoSolv max. 0.025% H2O, Merck) were performed under argon atmosphere using a three-electrode setup with a platinum disk or a glassy carbon disk working electrode (from Ionode, Australia), platinum wire as a counter electrode, and silver wire as a pseudo reference electrode. All potentials in voltammetric studies were quoted vs. ferricenium/ferrocene (Fc^+/Fc) redox couple. A Heka PG310USB (Lambrecht, Germany) potentiostat with a PotMaster 2.73 software package served for the potential control in voltammetric studies. In situ ultraviolet-visible-near-infrared (UV–Vis–NIR) spectroscopic and spectroelectrochemical measurements were performed on a spectrometer Avantes (Model AvaSpec-2048_14-USB2) in 1 cm quartz cuvette or the spectroelectrochemical cell kit ([…]3) with the Pt-microstructured honeycomb working electrode, purchased from Pine Research Instrumentation (Lyon, France). The cell was positioned in the CUV-UV Cuvette Holder (Ocean Optics, Ostfildern, Germany) connected to the diode-array UV–Vis–NIR spectrometer by optical fibres. UV–Vis–NIR spectra were processed using the AvaSoft 7.7 software package. Halogen and deuterium lamps were used as light sources (Avantes, Model AvaLight-DH-S-BAL, Apeldoorn, The Netherlands). EPR spectra were measured with a X-band cw-EPR spectrometers EMX and EMX plus (Bruker) at room temperature or 100 K. Spectroelectrochemical experiments were performed in a flat cell equipped with a Pt mesh working electrode using nBu4NPF6/DMSO electrolyte. Measurements in frozen solvent glass were done in MeCN/DMF 1 : 1 v/v. Complexes 4 and 5 were dissolved under ambient conditions, and complex 3 was reduced with a stoichiometric equivalent of cobaltocene in a N2 glovebox (N2 < 2 ppm, H2O < 1 ppm). The MeCN/DMF solutions were flash frozen in liquid N2 prior to transfer to the N2 flow cryostat precooled at 100 K inside the cavity of the EPR resonator. EPR spectra were analyzed with the Easyspin toolbox,[75] running on Matlab.

[2] = tested on: NCI 60 human tumor cell line panel; test: NCI-60 five-dose screen, average across panel; assay type: cell-based; settings: five-dose 0.01–100 μM
Method: (§2) This evaluation involved the utilization of the NCI 60 human tumor cell line panel.[57]
(§3) The NCI-60 SRB assay was performed as described previously.[76] GI50 values (the concentration of the metal complex causing 50% growth inhibition), TGI value (the concentration of the complex causing 0% cell growth), and LC50 (the concentration of the complex causing 50% cell death) were interpolated from dose–response curves that were plots of percentage cell growth versus concentration of test compounds.

K-562 = test: NCI-60 five-dose screen; assay type: cell-based, human; settings: Leukemia
Method: as §2, §3

MOLT-4 = test: NCI-60 five-dose screen; assay type: cell-based, human; settings: Leukemia
Method: as §2, §3

SR = test: NCI-60 five-dose screen; assay type: cell-based, human; settings: Leukemia
Method: as §2, §3

A549/ATCC = test: NCI-60 five-dose screen; assay type: cell-based, human; settings: Non-Small Cell Lung Cancer
From the text: (§4) The proligands HL^1–HL^3 and their corresponding metal complexes 1–8 prepared in this study were subjected to evaluation of their anticancer potential, including selectivity towards specific types of cancer: leukemia, non-small cell lung (NSCLC), colon, central nervous system (CNS), melanoma, ovarian, renal, prostate and breast cancers, by the National Cancer Institute's Developmental Therapeutics Program. This evaluation involved the utilization of the NCI 60 human tumor cell line panel.[57]
as §3

HOP-62 = test: NCI-60 five-dose screen; assay type: cell-based, human; settings: Non-Small Cell Lung Cancer
From the text: as §4, §3

COLO 205 = test: NCI-60 five-dose screen; assay type: cell-based, human; settings: Colon cancer
From the text: as §4, §3

HCT-15 = test: NCI-60 five-dose screen; assay type: cell-based, human; settings: Colon cancer
From the text: as §4, §3

SW-620 = test: NCI-60 five-dose screen; assay type: cell-based, human; settings: Colon cancer
From the text: as §4
(§5) GI50 values (the concentration of the metal complex causing 50% growth inhibition), TGI value (the concentration of the complex causing 0% cell growth), and LC50 (the concentration of the complex causing 50% cell death) were interpolated from dose–response curves that were plots of percentage cell growth versus concentration of test compounds.

SF-268 = test: NCI-60 five-dose screen; assay type: cell-based, human; settings: CNS cancer
From the text: as §4, §5

OVCAR-4 = test: NCI-60 five-dose screen; assay type: cell-based, human; settings: Ovarian cancer
From the text: as §4, §3

NCI/ADR-RES = test: NCI-60 five-dose screen; assay type: cell-based, human; settings: Ovarian cancer
From the text: as §4, §3

A498 = test: NCI-60 five-dose screen; assay type: cell-based, human; settings: Renal cancer
From the text: as §4, §3

CAKI-1 = test: NCI-60 five-dose screen; assay type: cell-based, human; settings: Renal cancer
From the text: as §4, §3

BT-549 = test: NCI-60 five-dose screen; assay type: cell-based, human; settings: Breast cancer
From the text: as §4, §3

purified tubulin = test: Inhibition of tubulin polymerization; assay type: biochemical; settings: read-out: Inhibition of tubulin polymerization IC50 ± SD
From the text: As a reference for comparison, combretastatin A-4 (CA-4) and Cu(HL^1)Cl2 were used.
(§1) The methods used for determination of the IC50 values for tubulin assembly and inhibition of [^3H]colchicine binding were as described previously.[77]

[3] = tested on: tubulin (colchicine site); test: Inhibition of [3H]colchicine binding to tubulin; settings: tubulin 0.5 μM, [3H]colchicine 5 μM
From the text: as §1

[4] = tested on: microtubule system in A549 cancer cells; test: α-Tubulin immunostaining; assay type: cell-based, human; settings: 80 μM, 24 h
Method: Since we found remarkable antiproliferative activity exerted by some of the tested compounds by the BrdU assay, and it was also shown that some of the compounds might interfere with tubulin polymerization in cell-free tests, we examined whether the metal complexes or the proligands influence the structure of the microtubule system in A549 cancer cells. For this purpose, the cells were treated with either DMSO, HL^1–HL^3, or with complexes 1, 2, 4 and 5, or were left untreated, followed by α-tubulin immunostaining (Fig. 11). In the untreated samples normal cell morphology and filamentous microtubule structure was observed.
The structure of microtubules was visualized by α-tubulin immunostaining on A549 cells. For this, 5 × 10^4 cells per well were seeded onto coverslips in 24-well plates. […] Then samples were fixed with 4% formaldehyde (Molar Chemicals, Halásztelek, Hungary), permeabilized with 0.3% Triton-X-100 (Calbiochem, Merck Millipore, Darmstadt, Germany) and were blocked using 5% BSA (Sigma-Aldrich, St Louis, Missouri, USA) diluted in PBS. Then the cells were incubated with anti-α-tubulin antibody (Thermo Fisher Scientific, monoclonal mouse antibody, DM1A, Waltham, Massachusetts, USA) in a 1 : 300 dilution in 1% BSA followed by Alexa 488 fluorophore-conjugated goat anti-mouse secondary antibody (Abcam, Cambridge, UK) in a 1 : 600 dilution in 1% BSA. […]

A549 cells = test: BrdU incorporation assay; settings: 10 μM, 24 h
Method: To test directly the antiproliferative activity of the proligands and of their Co(III) and Fe(III) complexes on A549 cancer cells, non-toxic concentrations of the compounds were applied to the cells, then the 5-bromo-2′-deoxy-uridine (BrdU) incorporation assay was performed (Fig. 10).
The effect of proligands HL^1–HL^3 and of metal complexes 1, 2 and 4, 5 on the proliferation of A549 cells was investigated by the BrdU assay (5-bromo-2′-deoxyuridine Labeling and Detection Kit I, Roche, Cat. No. 11 296 736 001). For this, 3 × 10^4 cells were seeded onto glass coverslips that were placed on 24-well plates, and the cells were left to grow overnight. Next day, when the cells reached about 50% confluence, the samples were treated with 10 μM of each compound or with an equivalent volume of DMSO for 24 h. At this point, BrdU labeling solution was added in a 1 : 1000 dilution, and the incubation continued for 30 min. Then the cells were fixed using 70% ethanol in 50 mM glycine (pH 2.0), and immunofluorescence of adherent cells was measured following the manufacturer's instructions. BrdU incorporation was visualized using an Olympus FV10i confocal microscope.

[5] = tested on: A549 human lung adenocarcinoma cells; test: MTT viability assay, 24 h; settings: read-out: IC50 values A549; A549 cells, 24 h, MTT assay
Method: (§6) We wanted to compare the cytotoxicity of proligands HL^1–HL^3 and of their Co(III) and Fe(III) complexes 1, 2 and 4, 5 on cell lines originating from the same tissue, so human lung carcinoma A549 cells and lung fibroblast MRC-5 cells were subjected to 24 h treatments.
(§7) The biological effects of selected metal complexes (1, 2, 4 and 5) and of their proligands (HL^1, HL^2 and HL^3) were tested more extensively on A549 human lung adenocarcinoma cells and on MRC-5 human lung fibroblast cells. Both cell lines were obtained from ATCC and maintained in DMEM cell culture media containing 1.0 g L^−1 glucose (Biosera, Nuaille, France) complemented with 10% fetal bovine serum (FBS), 2 mM L-glutamine, 0.01% streptomycin and 0.005% penicillin and were cultured under standard conditions in a 37 °C incubator at 5% CO2 and 95% humidity. The viability of A549 and of MRC-5 fibroblast cells upon exposure to the selected metal–ligand complexes and ligands were evaluated by the MTT assay. For this, 10 000 cells per well were seeded into 96-well plates and left to grow. On the next day the cells were exposed to 0, 5, 10, 20, 40 or 80 μM of each compound or to an equivalent volume of DMSO for 24 h. After the treatments, cells were washed with PBS and then were incubated with 0.5 mg mL^−1 MTT reagent (Sigma-Aldrich, St Louis, Missouri, USA) for 1 h at 37 °C. Finally, 100 μL of DMSO (Molar Chemicals, Halásztelek, Hungary) was added to each well, and the absorbance of samples was measured at 570 nm using a Synergy HTX plate reader (BioTek, Winooski, Vermont, USA). The viability measurements were repeated three times using 3 independent biological replicates.

[6] = tested on: MRC-5 human lung fibroblast cells; test: MTT viability assay, 24 h; settings: read-out: IC50 values MRC-5; MRC-5 fibroblasts, 24 h, MTT assay
Method: as §6, §7

CC(=NN=C([S-])Nc1cc(C)c(O)c(C)c1)c1cccc(CN2CCOCC2)n1.CC(=NN=C([S-])Nc1cc(C)c(O)c(C)c1)c1cccc(CN2CCOCC2)n1.O=[N+]([O-])[O-].[Fe+3] [Complex 4, [Fe^III(L^2)2]NO3]
1st oxidation potential (peak potential Ep) [1]: 0.40^i* volts vs. Fc^+/Fc
1st reduction potential (E1/2 or Ep) [1]: −0.35^r volts vs. Fc^+/Fc
2nd reduction potential (E1/2 or Ep) [1]: −1.85^q volts vs. Fc^+/Fc
average TGI across all cell lines in the panel [2]: 18400 nM
GI50 ([2]; read-out: average GI50 across all cell lines in the panel): 2920 nM
LC50 ([2]; read-out: average LC50 across all cell lines in the panel): 51200 nM
GI50 (K-562): 2000 nM
GI50 (MOLT-4): 2720 nM
GI50 (SR): 2430 nM
GI50 (A549/ATCC): 2440 nM
GI50 (HOP-62): 2970 nM
GI50 (COLO 205): 1530 nM
GI50 (HCT-15): 2360 nM
GI50 (SW-620): 2300 nM
GI50 (SF-268): 2360 nM
GI50 (OVCAR-4): 3250 nM
GI50 (NCI/ADR-RES): 2980 nM
GI50 (A498): 19800 nM
GI50 (CAKI-1): 3740 nM
GI50 (BT-549): 2190 nM
IC50 (purified tubulin): 3400 ± 60 nM
Inhibition of colchicine binding, % inhibition ± SD ([3]; 5 μM inhibitor): 3.4 ± 5%
Inhibition of colchicine binding, % inhibition ± SD ([3]; 25 μM inhibitor): 17 ± 4%
effect on microtubule structure and cell morphology [4]: even greater disruption
A549 cell proliferation (BrdU incorporation) (A549 cells): significantly less BrdU incorporation
IC50 [5]: 14000 to 17000 nM and 17000 nM
IC50 [6]: > 80000 nM
